Earlier results as cited in US4866035A, “Dipeptidyl saccharides as host resistance enhancers in AIDS-immuno-compromised hosts and methods of use” (Merck & Co., Inc., priority 1987, dated 1989).
Read-outs that look alike come from different tables or passages of the source.

Key:
AIDS or ARC patients = conditions: ARC or AIDS-related conditions
[1] = in vivo
[2] = target: HIV reverse transcriptase (Human immunodeficiency virus type 1 group M subtype B, UniProt P04585)
[3] = test system: human immunodeficiency virus (HIV)
reverse transcriptase = conditions: in vitro
[4] = clinical trials or use in patients

## CO[C@H]1/C=C/O[C@@]2(C)Oc3c(C)c(O)c4c(c3C2=O)C2=NC3(CCN(CC(C)C)CC3)NC2=C(NC(=O)/C(C)=C\C=C\[C@H](C)[C@H](O)[C@@H](C)[C@@H](O)[C@@H](C)[C@H](OC(C)=O)[C@@H]1C)C4=O [Ansamycin]
AIDS or ARC patients
  clinical effect in patients: some efficacy

## Cc1cn([C@H]2C[C@H](N=[N+]=[N-])[C@@H](CO)O2)c(=O)[nH]c1=O [Azidothymidine, 3'-azido 3'-deoxythymidine]
AIDS or ARC patients
  clinical effect in patients: promise in prolonging lives
[1]
  half life in the body: relatively short half life
  penetration of central nervous system: effectively penetrates central nervous system
[1]; po
  oral absorption: Well absorbed orally

## CC(C)(N1CC1C#N)N1CC1C(N)=O (stereo not drawn) [Azimexon]
AIDS or ARC patients
  clinical effect in patients: improvements in symptoms and immune function in patients with ARC but not AIDS
patients; [4]
  adverse effects, tolerability: mild hemolysis

## CC(C)(S)[C@@H](N)C(=O)O [D-Penicillamine, 3-mercapto D-valine]
AIDS or ARC patients
  clinical effect in patients: suppressed the virus
patients; human, in vivo
  adverse effects, tolerability: temporarily depressed T cell levels

## O=C(O)P(=O)(O)O [Foscarnet, trioodium phosphonoformate]
[2]
  inhibition of HIV reverse transcriptase: Inhibits HIV reverse transcriptase activity in vitro
patients; human, in vivo
  adverse effects, tolerability: serious side effects

## CC(=O)Nc1ccc(C(=O)O)cc1.CC(=O)Nc1ccc(C(=O)O)cc1.CC(=O)Nc1ccc(C(=O)O)cc1.CC(O)CN(C)C.CC(O)CN(C)C.CC(O)CN(C)C.O=c1[nH]cnc2c1ncn2[C@@H]1O[C@H](CO)[C@@H](O)[C@H]1O [Inosine pranobex]
AIDS or ARC patients
  clinical effect in patients: improve immune function in ARC patients

## NC(=O)c1ncn([C@@H]2O[C@H](CO)[C@@H](O)[C@H]2O)n1 [Ribavirin, 1-β-D-ribofuranosyl-1,2,4-triazole 3-carboxamide]
AIDS or ARC patients
  clinical effect in patients: inhibited viral replication and improved immune function
patients; [4]
  adverse effects, tolerability: well tolerated

## Cc1ccc(C(=O)Nc2ccc(S(=O)(=O)O)c3cc(S(=O)(=O)O)cc(S(=O)(=O)O)c23)cc1NC(=O)c1cccc(NC(=O)Nc2cccc(C(=O)Nc3cc(C(=O)Nc4ccc(S(=O)(=O)O)c5cc(S(=O)(=O)O)cc(S(=O)(=O)O)c45)ccc3C)c2)c1 [Suramin]
[2]
  inhibition of HIV reverse transcriptase: Potent inhibitor of HIV reverse transcriptase
patients; human, in vivo
  adverse effects, tolerability: serious side effects

## ammonium-21-tungsto-9-antimoniate [HPA-23]
[3]
  effect on HIV growth or infectivity: some tendency to check the growth of HIV
AIDS or ARC patients
  clinical effect in patients: no therapeutic benefit has been documented
Reverse transcriptase
  inhibition of reverse transcriptase in several retroviruses: Inhibits reverse transcriptase

## α-Interferon
[3]
  effect on HIV growth or infectivity: Checks the growth of HIV in vitro
AIDS or ARC patients
  clinical effect in patients: induced tumor regression in some AIDS-related Kaposi's sarcoma cases
